Eight compounds from article PMC4787089 (Pharmacognosy Magazine, 2015) can be followed below.

Where two headings read alike, the source gives them in different places.

One may read the IC50 as the point on the concentration scale where inhibition reaches its midpoint.

In one assay the target is T1, recombinant HDAC8 (Homo sapiens, UniProt Q9BY41).
T1 sequence (Q9BY41 1-377): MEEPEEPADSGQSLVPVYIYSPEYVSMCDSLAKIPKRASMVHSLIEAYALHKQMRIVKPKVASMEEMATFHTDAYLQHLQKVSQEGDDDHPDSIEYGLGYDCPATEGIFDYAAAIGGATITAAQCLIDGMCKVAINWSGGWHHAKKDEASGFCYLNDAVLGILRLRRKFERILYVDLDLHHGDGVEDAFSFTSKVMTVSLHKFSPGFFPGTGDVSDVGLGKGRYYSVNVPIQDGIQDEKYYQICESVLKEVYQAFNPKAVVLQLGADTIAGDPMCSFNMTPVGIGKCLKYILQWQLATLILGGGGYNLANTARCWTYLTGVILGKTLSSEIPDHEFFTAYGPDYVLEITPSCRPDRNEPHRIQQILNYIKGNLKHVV
The assay can be described thus: Histone deacetylase 8 inhibitory assay. The assay is classed as biochemical. To be noted: 10 μM.

In assay [1] the test system is tested cancer cell lines (HepG2, Hep2, HCT116, RD, MCF7). Kind of assay: In vitro cytotoxicity, summary statements over tested cancer cell lines. The assay is classed as cell-based, human.
The next assay deals with bovine brain tubulin. Kind of assay: Tubulin polymerization assay. The assay is classed as biochemical. To be noted: 10 μM.
Where [2] appears, read: Homo sapiens, RD, read-out: IC50 against cancer cell lines.

`O=Cc1ccc(CO)o1` [5-(hydroxymethyl)-2-furaldehyde]: the “Percentage inhibition HDAC8 activity” value at recombinant HDAC8 was under 30%.

With `Nc1ncnc2c1ncn2[C@@H]1O[C@H](CO)[C@@H](O)[C@H]1O` [Adenosine, adenosine], at recombinant HDAC8, the “Percentage inhibition HDAC8 activity” value is given as “stimulated HDAC8 activity”.

For the compound `O=c1ccc2ccc3occc3c2o1` [Angelicin, angelicin], in assay [1] (setting [2]), the 50% inhibitory concentration (IC50) was under 20 µM. In addition, in assay [1] (tested cancer cell lines (extract and quercetin: except RD cells)), the “SI against cancer cell lines” value is over 7.

As for `O=C(/C=C/c1ccc(O)c(O)c1)O[C@@H]1C[C@](O)(C(=O)O)C[C@@H](O)[C@H]1O` [Chlorogenic acid, chlorogenic acid], the “Percentage inhibition tubulin polymerization” value in the assay on bovine brain tubulin was “moderate inhibition”.

`CC(=O)OC1c2c(ccc3ccc(=O)oc23)OC(C)(C)C1OC(=O)C(C)(O)C(C)O` (stereo not shown) [Hyuganin E, hyuganin E]: the “SI (good selectivity), Hep2, HCT116, and MCF7” value in assay [1] (Hep2, HCT116, and MCF7) is listed as over 3. In addition, the IC50 in assay [1] (read-out: IC50 values against Hep2, HCT116, and MCF7, Hep2, HCT116, and MCF7) is under 25 µM.

As for `O=c1cc(-c2ccc(O)c(O)c2)oc2cc(O)cc(O)c12` [Luteolin, luteolin], the IC50 in assay [1] (setting [2]) was under 20 µM.

For `O=c1c(O)c(-c2ccc(O)c(O)c2)oc2cc(O)cc(O)c12` [Quercetin, quercetin], the IC50 in assay [1] (setting [2]) is under 20 µM.

As for `CC[C@H](CC[C@@H](C)[C@H]1CC[C@H]2[C@@H]3CC=C4C[C@@H](O[C@@H]5O[C@H](CO)[C@@H](O)[C@H](O)[C@H]5O)CC[C@]4(C)[C@H]3CC[C@]12C)C(C)C` [β-Sitosterol-3-O-glucoside, β-sitosterol-3-O-glucoside], on recombinant HDAC8, the “Percentage inhibition HDAC8 activity” value is on record as “stimulated HDAC8 activity”.
